In PMC5500233 (Peptides, 2016):
Values joined by “and” are separate entries in the source; they are usually repeats but may differ in a detail not shown here. Equal values may be shown once. “Also recorded” adds a separate entry of the source.

Key:
DPP 3 = settings: ref [2],[15]; cited from earlier work
human DPP 3 [1] = target: T1, human DPP 3 (Homo sapiens, UniProt Q9NY33); experiment: JMV-390 inhibition of ^125I-Ang-; assay type: biochemical; settings: JMV-390, Fig. 3: 0.5 and 10 nM
T1 sequence (Q9NY33 1-737): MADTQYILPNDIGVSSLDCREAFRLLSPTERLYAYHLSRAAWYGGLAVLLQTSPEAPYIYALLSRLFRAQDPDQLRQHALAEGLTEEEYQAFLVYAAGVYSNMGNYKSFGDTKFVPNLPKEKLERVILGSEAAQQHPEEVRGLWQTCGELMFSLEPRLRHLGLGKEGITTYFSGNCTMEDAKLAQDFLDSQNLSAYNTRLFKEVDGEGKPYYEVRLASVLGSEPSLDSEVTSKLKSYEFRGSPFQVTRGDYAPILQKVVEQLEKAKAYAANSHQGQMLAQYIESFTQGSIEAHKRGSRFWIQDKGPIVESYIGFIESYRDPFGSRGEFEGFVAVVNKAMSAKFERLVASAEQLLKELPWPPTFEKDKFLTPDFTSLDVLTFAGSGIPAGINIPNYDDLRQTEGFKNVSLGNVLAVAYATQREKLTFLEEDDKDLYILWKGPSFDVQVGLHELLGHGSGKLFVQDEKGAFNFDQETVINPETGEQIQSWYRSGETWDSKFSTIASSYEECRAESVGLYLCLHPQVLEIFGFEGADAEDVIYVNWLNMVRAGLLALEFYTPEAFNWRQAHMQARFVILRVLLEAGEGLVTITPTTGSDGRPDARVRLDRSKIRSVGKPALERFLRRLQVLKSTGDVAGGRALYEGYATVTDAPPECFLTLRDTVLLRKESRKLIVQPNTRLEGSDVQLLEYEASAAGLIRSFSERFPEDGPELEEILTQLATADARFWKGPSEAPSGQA

[2] = test system: DPP 3 activity in HK-2 cells; experiment: ^125I-Ang-; assay type: cell-based, human; settings: for peptidase activity: mean±SEM, control 136±6
[3] = target: Ang-(1–7) peptidase in renal tubules; settings: JMV-390, ref [15],[25]; cited from earlier work
[4] = target: Ang-(1–7) peptidase, partially purified fraction from brain medulla; settings: JMV-390; brain medulla Ang-(1–7) peptidase; ref [15]; cited from earlier work
[5] = test system: TOP expressed in the HK-2 cells; settings: high dose of JMV-390; ref [25]; cited from earlier work
HK-2 cells = experiment: Intracellular Ang-; assay type: cell-based, human
[6] = test system: purified Ang-(1–7) peptidase from HK-2 cells; experiment: JMV-390 inhibition of ^125I-Ang-; assay type: biochemical, human; settings: JMV-390, Fig. 3: 0.5 and 10 nM
human DPP 3 [7] = target: T1, human DPP 3; experiment: Metabolism of unlabeled Ang-; assay type: biochemical; settings: 100 μM Ang-(1–7), 37 °C, HPLC-UV
Ang-(1–7) RIA = settings: as previously described; ref [27]; cited from earlier work
[8] = test system: Ang-(1–7) peptidase, partially purified fraction from brain medulla; settings: ref [15], cited from earlier work
human DPP 3 [9] = target: T1, human DPP 3; experiment: Kinetic studies of Ang-; assay type: biochemical; settings: 37 °C, n=3
HK-2 peptidase = settings: ref [25]; cited from earlier work

## O=C(O)CN(CCN(CC(=O)O)CC(=O)O)CC(=O)O [EDTA]
DPP 3
  sensitivity of DPP 3 to thiol inhibitors and chelating agents: unusual sensitivity

## CC[C@H](C)[C@H](NC(=O)[C@@H](CC(=O)NO)Cc1ccccc1)C(=O)N[C@@H](CC(C)C)C(=O)O [JMV-390]
Human DPP 3 [1]
  effect on Ang-(1–7) hydrolysis by DPP 3: abolished; also recorded: attenuated the metabolism
[2]; 20 nM JMV-390, 72 h, n = 2
  peptidase activity: 76 ± 13 fmol/min/mg
[2]; 200 nM JMV-390, 72 h, n = 3, p<0.05
  peptidase activity: 17 ± 3 fmol/min/mg
[2]; 200 nM JMV-390, 72 h, vs control, n = 3, p<0.05
  reduction of peptidase (DPP 3) activity: 85% and > 80%
[2]; 20 or 200 nM JMV-390, 72 h, 100,000 × g cytosolic fraction
  effect on metabolism of ^125I-Ang-(1–7) to ^125I-Ang-(3-4): significantly reduced the metabolism
[3]
  IC50: ~1 nM
[4]
  IC50: < 1 nM
[5]
  direct conversion of ^125I-Ang I to ^125I-Ang-(1–7) by TOP: inhibited the direct conversion
HK-2 cells; 20 nM JMV-390, 72 h
  effect on intracellular content of Ang-(1–7): tended to augment the cellular levels of Ang-(1–7); also recorded: increased the intracellular content of Ang-(1–7)
HK-2 cells; 20 nM JMV-390, 72 h, vs basal, n = 3, not statistically significant
  increase in Ang-(1–7) content: 68%
HK-2 cells; 200 nM JMV-390, 72 h
  effect on intracellular content of Ang-(1–7): significantly decreased the content of Ang-(1–7)
HK-2 cells; 200 nM JMV-390, 72 h, RIA, mean±SEM, n = 3, p<0.05 vs 20 nM JMV-390, basal 22 ±2
  Ang-(1–7) content: 15 ±3 fmols/mg protein
HK-2 cells; lower dose (20 nM) of JMV-390, not statistically significant
  increase in cellular levels of Ang-(1–7): approximately 2 fold
[6]
  effect on Ang-(1–7) hydrolysis by purified Ang-(1–7) peptidase: abolished; also recorded: attenuated the metabolism
Human DPP 3 [7]; JMV-390 1 μM, 100 ng DPP 3, 60 min
  metabolism of unlabeled Ang-(1–7) to Ang-(5–7) in presence of inhibitor: attenuated the metabolism of Ang-(1–7)

## O=C(O)c1cc[c]([Hg][Cl])cc1 [PCMB]
DPP 3
  sensitivity of DPP 3 to thiol inhibitors and chelating agents: unusual sensitivity

## c1cnc2c(c1)ccc1cccnc12 [ophenanthroline]
DPP 3
  sensitivity of DPP 3 to thiol inhibitors and chelating agents: unusual sensitivity

## APMA
DPP 3
  sensitivity of DPP 3 to thiol inhibitors and chelating agents: unusual sensitivity

## Ang II: angiotensin peptide (DRVYIHPF; Angiotensin-2; UniProt P01019 25-32, looked up)
Ang-(1–7) RIA
  recognition by Ang-(1–7) RIA (cross-reactivity): < 0.01%

## Ang-(2–7): angiotensin peptide recognized by the Ang-(1–7) RIA (RVYIHP; UniProt P01019 26-31, looked up, fragment)
Ang-(1–7) RIA
  recognition by Ang-(1–7) RIA: recognizes

## Angiotensin-(1–7) [Ang-(1–7)]
[8]; enriched brain medulla peptidase
  hydrolysis rate, fold higher than Ang II: 12 fold
Human DPP 3 [7]; 100 ng human DPP 3, 60 min
  product of unlabeled Ang-(1–7) hydrolysis: a major peak corresponding to the metabolite Ang-(5–7)
Human DPP 3 [9]
  kcat: 7.3 s⁻¹

## [Abz-Asp^1, Tyr (NO2)^7]-Ang-(1–7)]
HK-2 peptidase
  hydrolysis by HK-2 peptidase: resistant

## apelin 13
[8]
  metabolism by enriched peptidase: failed to metabolize

## bradykinin (RPPGFSPFR; Bradykinin; UniProt P01042 381-389, looked up)
[8]
  metabolism by enriched peptidase: failed to metabolize

## neurotensin
[8]
  metabolism by enriched peptidase: failed to metabolize
